# US4463171A, “Derivatives of macrolide antibiotics” (Sanraku-Ocean Co., Ltd., priority 1982, dated 1984)
# Experiments:
# Assay in all cases: Antibacterial activity (minimum inhibitory concentration), tube dilution method
# Assay type in all cases: cell-based
# [1] = system: Klebsiella pneumoniae PCI602; settings: PCI602, tube dilution method, brain heart infusion broth (pH 7.5), read-out: minimum inhibitory concentration, Klebsiella pneumoniae PCI602
# Description: (§1) The antibacterial activities of some typical compounds of this invention were measured by a tube dilution method in a brain heart infusion broth (pH 7.5) as a culture medium.
# [2] = system: Staphylococcus aureus 209P; settings: tube dilution method, brain heart infusion broth (pH 7.5), read-out: minimum inhibitory concentration, Staphylococcus aureus 209P
# Description: as §1
# [3] = system: Staphylococcus aureus MS9861; settings: Staphylococcus aureus, MS9861; tube dilution method, brain heart infusion broth (pH 7.5); read-out: minimum inhibitory concentration, Staphylococcus aureus MS9861
# Description: as §1
# [4] = system: Bacillus subtilis NRRL B558; settings: Bacillus subtilis, NRRLB558; tube dilution method, brain heart infusion broth (pH 7.5); read-out: minimum inhibitory concentration, Bacillus subtilis NRRL B558
# Description: as §1
SMILES,MIC [1] [mg/L],MIC [2] [mg/L],MIC [3] [mg/L],MIC [4] [mg/L]
"CCC1OC(=O)CC(O)C(C)C(OC2OC(C)C(OC3CC(C)(O)C(OC(=O)CSc4ccccc4)C(C)O3)C(N(C)C)C2O)C(CC=O)CC(C)C(=O)C=CC(C)=CC1CBr (centres unmarked) [R1=H, R3=drawing 69, AR4=Br]",> 100,0.4,3.1,1.6
"CCC1OC(=O)CC(O)C(C)C(OC2OC(C)C(OC3CC(C)(O)C(OC(=O)CC(C)C)C(C)O3)C(N(C)C)C2O)C(CC=O)CC(C)C(=O)C=CC(C)=CC1CBr (centres unmarked) [R1=H, R3=drawing 68, AR4=Br, 23-Deoxy-23-bromo-4""-O-isovaleryl-YO-9010]",6.3,0.8,1.6,0.4
"CCC1OC(=O)CC(O)C(C)C(OC2OC(C)C(OC3CC(C)(O)C(O)C(C)O3)C(N(C)C)C2O)C(CC=O)CC(C)C(=O)C=CC(C)=CC1CSC (centres unmarked) [R1=H, R3=H, AR4=SCH3, 23-Deoxy-23-methylthio-YO-9010]",6.3,0.8,1.6,0.8
"CCC1OC(=O)CC(O)C(C)C(OC2OC(C)C(OC3CC(C)(O)C(OC(=O)CSc4ccccc4)C(C)O3)C(N(C)C)C2O)C(CC=O)CC(C)C(=O)C=CC(C)=CC1CO (centres unmarked) [R1=H, R3=drawing 67, AR4=OH]",3.1,0.4,3.1,< 0.2
"CCC1OC(=O)CC(O)C(C)C(OC2OC(C)C(OC3CC(C)(O)C(OC(=O)CC(C)C)C(C)O3)C(N(C)C)C2O)C(CC=O)CC(C)C(=O)C=CC(C)=CC1COC(C)=O (centres unmarked) [R1=H, R3=drawing 75, AR4=OCOCH3, 23-O-Acetyl-4""-O-isovaleryl-YO-9010]",3.1,0.8,6.3,1.6
"CCC1OC(=O)CC(O)C(C)C(OC2OC(C)C(OC3CC(C)(O)C(OC(C)=O)C(C)O3)C(N(C)C)C2O)C(CC=O)CC(C)C(=O)C=CC(C)=CC1CO (centres unmarked) [R1=H, R3=COCH3, AR4=OH]",3.1,1.6,25,1.6
"CCC1OC(=O)CC(O)C(C)C(OC2OC(C)C(OC3CC(C)(O)C(OC(=O)CSc4ccncc4)C(C)O3)C(N(C)C)C2O)C(CC=O)CC(C)C(=O)C=CC(C)=CC1CBr (centres unmarked) [R1=H, R3=drawing 70, AR4=Br]",12.5,0.2,0.8,< 0.2
"CCC1OC(=O)CC(O)C(C)C(OC2OC(C)C(OC3CC(C)(O)C(O)C(C)O3)C(N(C)C)C2O)C(CC=O)CC(C)C(=O)C=CC(C)=CC1CSc1ccccc1 (centres unmarked) [R1=H, R3=H, AR4=drawing 80]",25,< 0.2,1.6,< 0.2
"CCC1OC(=O)CC(O)C(C)C(OC2OC(C)C(OC3CC(C)(O)C(O)C(C)O3)C(N(C)C)C2O)C(CC=O)CC(C)C(=O)C=CC(C)=CC1COC(=O)CSc1ccncc1 (centres unmarked) [R1=H, R3=H, AR4=drawing 72]",12.5,0.8,3.1,< 0.2
"CCC1OC(=O)CC(O)C(C)C(OC2OC(C)C(OC3CC(C)(O)C(O)C(C)O3)C(N(C)C)C2O)C(CC=O)CC(C)C(=O)C=CC(C)=CC1CI (centres unmarked) [R1=H, R3=H, AR4=I, 23-Deoxy-23-iodo-YO-9010]",6.3,0.4,3.1,< 0.2
"CCC1OC(=O)CC(O)C(C)C(OC2OC(C)C(OC3CC(C)(O)C(OC(=O)CC(C)C)C(C)O3)C(N(C)C)C2O)C(CC=O)CC(C)C(=O)C=CC(C)=CC1CO (centres unmarked) [R1=H, R3=drawing 66, AR4=OH, 4""-O-isovaleryl-YO-9010]",1.6,0.4,1.6,0.8
"CCC1OC(=O)CC(O)C(C)C(OC2OC(C)C(OC3CC(C)(O)C(O)C(C)O3)C(N(C)C)C2O)C(CC=O)CC(C)C(=O)C=CC(C)=CC1COC(=O)C(NSc1ccccc1[N+](=O)[O-])c1ccccc1 (centres unmarked) [R1=H, R3=H, AR4=drawing 74]",3.1,0.8,3.1,0.8
"CCC1OC(=O)CC(O)C(C)C(OC2OC(C)C(OC3CC(C)(O)C(O)C(C)O3)C(N(C)C)C2O)C(CC=O)CC(C)C(=O)C=CC(C)=CC1COC(C)=O (centres unmarked) [R1=H, R3=H, AR4=OCOCH3]",25,0.4,1.6,0.4
"CCC1OC(=O)CC(OC(C)=O)C(C)C(OC2OC(C)C(OC3CC(C)(O)C(OC(=O)CC(C)C)C(C)O3)C(N(C)C)C2O)C(CC=O)CC(C)C(=O)C=CC(C)=CC1CBr (centres unmarked) [R1=COCH3, R3=drawing 68, AR4=Br, 3-O-Acetyl-23-deoxy-23-bromo-4""-O-isovaleryl-YO-9010]",> 100,1.6,3.1,1.6
